Data as given in ChEMBL document CHEMBL4483862, “Open-source discovery of chemical leads for next-generation chemoprotective antimalarials” (2018).

Test system: Plasmodium berghei
Assay: Luciferase/luciferin-expressing antifolate-resistant parasites were used to infect a culture of HepG2 cells that were pre-incubated with compounds. Infected hepatocytes emit light due to the luciferase reaction. Assay results are presented as the percent inhibition of light emission compared to control. […]
Type: functional
Conditions: sporozoite; for IC90: read-out: LUCIFERASE INFECTION ASSAY - IC90
[1] = read-out: LUCIFERASE INFECTION ASSAY - IC50

| SMILES | IC90 [µM] | further results |
| --- | --- | --- |
| COc1ccc(CNC(=O)N(C)CCOc2ccc(OC)cc2)cc1 | > 10 | IC50 (FFLUC_HILL_SLOPE 0.273, FFLUC_R_SQUARED 0.253, HEPG2TOX_HILL_SLOPE 16.5, HEPG2TOX_R_SQUARED 0.443, PBLUC_HILL_SLOPE 9.82, PBLUC_R_SQUARED 0.776, read-out: LUCIFERASE INFECTION ASSAY - IC50): 8.44 µM |
| Cc1ccc(CCC2CCN(C(=O)c3ccc(NS(=O)(=O)c4cccs4)cc3O)CC2)cc1 | > 10 | IC50 (FFLUC_HILL_SLOPE 12, FFLUC_R_SQUARED 0.0293, HEPG2TOX_HILL_SLOPE 12.4, HEPG2TOX_R_SQUARED 0.101, read-out: LUCIFERASE INFECTION ASSAY - IC50): > 10 µM |
| CC(=O)c1cccc(-c2cnc3cnc(-c4ccc(CNc5ccccc5)cc4)cn23)c1 | > 7.89 | IC50 (FFLUC_HILL_SLOPE 9.2, FFLUC_R_SQUARED 0.0159, PBLUC_HILL_SLOPE 3.04, PBLUC_R_SQUARED 0.57, read-out: LUCIFERASE INFECTION ASSAY - IC50): 4.89 µM |
| Cc1cc(C(C)(C)C)cc(C)c1C[n+]1c2n(c3ccc(C(F)(F)F)cc31)CCCCC2 | 2.85 | IC50 (HEPG2TOX_HILL_SLOPE 3.95, HEPG2TOX_R_SQUARED 0.938, PBLUC_HILL_SLOPE 4.2, PBLUC_R_SQUARED 0.767, read-out: LUCIFERASE INFECTION ASSAY - IC50): 1.69 µM |
| Cc1ccccc1-n1c(C)cc(/C=C(\C#N)C(=O)NCC2CCCO2)c1C (stereo not drawn) | 6.25 | IC50 (PBLUC_HILL_SLOPE 1.57, PBLUC_R_SQUARED 0.725, read-out: LUCIFERASE INFECTION ASSAY - IC50): 1.55 µM |
| CCN(CC)CCNC(=O)c1ccc(-c2ccccc2)cc1 | > 11.1 | IC50 (PBLUC_HILL_SLOPE 0.701, PBLUC_R_SQUARED 0.65, read-out: LUCIFERASE INFECTION ASSAY - IC50): 5.34 µM |
| COc1cc(/C=N/Nc2ccc(C(F)(F)F)cn2)ccc1OS(=O)(=O)c1ccc(C)c([N+](=O)[O-])c1 | > 10 | IC50 (FFLUC_HILL_SLOPE 3.31, FFLUC_R_SQUARED 0.75, read-out: LUCIFERASE INFECTION ASSAY - IC50): > 10 µM |
| Cc1c(Cl)cn2c(=O)cc(CN3CCN(c4ccccc4)CC3)nc2c1Cl | > 10 | IC50 [1]: > 10 µM |
| CCCn1c(NC(=O)CCN(c2ccc(C)cc2)S(=O)(=O)c2ccc(C)cc2)nc2ccccc21 | > 10 | IC50 [1]: > 10 µM |
| Fc1ccc(CNc2n[nH]c(=S)s2)cc1 | > 13.7 | IC50 (FFLUC_HILL_SLOPE 2.08, FFLUC_R_SQUARED 0.432, read-out: LUCIFERASE INFECTION ASSAY - IC50): > 13.7 µM |
| CC(=O)C1C2C(=O)N(C(C)(C)C)C(=O)C2C2C=Cc3ccc4cccnc4c3N21 (stereo not drawn) | 6.42 | IC50 (HEPG2TOX_HILL_SLOPE 8.2, HEPG2TOX_R_SQUARED 0.867, PBLUC_HILL_SLOPE 4.87, PBLUC_R_SQUARED 0.475, read-out: LUCIFERASE INFECTION ASSAY - IC50): 4.09 µM |
| Cc1ccc(-c2nc(-c3ccccc3)nc(N3CCN(C)CC3)c2C#N)cc1 | > 8.93 | IC50 (HEPG2TOX_HILL_SLOPE 0.407, HEPG2TOX_R_SQUARED 0.712, PBLUC_HILL_SLOPE 0.491, PBLUC_R_SQUARED 0.261, read-out: LUCIFERASE INFECTION ASSAY - IC50): > 8.93 µM |
| O=C(NCc1ccccc1)C1=CN2CCN(Cc3cccc(Cl)c3)C(=O)N=C2O1 | > 10 | IC50 (FFLUC_HILL_SLOPE 9.9, FFLUC_R_SQUARED 0.0641, read-out: LUCIFERASE INFECTION ASSAY - IC50): > 10 µM |
| COc1ccc(-c2cn3c(-c4ccc5ncccc5c4)cnc3cn2)cn1 | 4.4 | IC50 (HEPG2TOX_HILL_SLOPE 1.73, HEPG2TOX_R_SQUARED 0.987, PBLUC_HILL_SLOPE 1.52, PBLUC_R_SQUARED 0.763, read-out: LUCIFERASE INFECTION ASSAY - IC50): 1.04 µM |
| CCOC(=O)c1ccc(Oc2c[nH]nc2-c2ccc(OC)cc2O)cc1 | > 9.31 | IC50 (FFLUC_HILL_SLOPE 1.78, FFLUC_R_SQUARED 0.28, read-out: LUCIFERASE INFECTION ASSAY - IC50): > 9.31 µM |
| Cc1cc(C(=O)COC(=O)c2ccccc2N/C=C/C(=O)C(F)(F)F)c(C)n1CC1CCCO1 (stereo not drawn) | > 10 | IC50 (FFLUC_HILL_SLOPE 1.17, FFLUC_R_SQUARED 0.844, PBLUC_HILL_SLOPE 1.67, PBLUC_R_SQUARED 0.404, read-out: LUCIFERASE INFECTION ASSAY - IC50): 3.35 µM |
| Cc1cc(C)c2c(=O)cc(C(=O)Nc3cccnc3)oc2c1 | 4.06 | IC50 (HEPG2TOX_HILL_SLOPE 1.93, HEPG2TOX_R_SQUARED 0.965, PBLUC_HILL_SLOPE 5.85, PBLUC_R_SQUARED 0.609, read-out: LUCIFERASE INFECTION ASSAY - IC50): 2.79 µM |
| CCc1nnc(NC(=O)CCSCc2cn3ccccc3n2)s1 | > 10 | IC50 [1]: > 10 µM |
| CC(C)CN1C(=O)N(C)C(=O)C12CCN(Cc1cc3ccccc3s1)CC2 | > 8.56 | IC50 (PBLUC_HILL_SLOPE 3.77, PBLUC_R_SQUARED 0.71, read-out: LUCIFERASE INFECTION ASSAY - IC50): 6.78 µM |
| Cc1noc(CSc2nnc(Nc3ccc(OC(F)(F)F)cc3)s2)n1 | > 10 | IC50 (HEPG2TOX_HILL_SLOPE 3.01, HEPG2TOX_R_SQUARED 0.966, PBLUC_HILL_SLOPE 1.72, PBLUC_R_SQUARED 0.424, read-out: LUCIFERASE INFECTION ASSAY - IC50): 4.45 µM |

| SMILES | IC90 [µM] | further results |
| --- | --- | --- |
| O=C1C=CC(=O)N1c1ccc(-c2csnn2)cc1 | > 12.8 | IC50 (FFLUC_HILL_SLOPE 14.6, FFLUC_R_SQUARED 0.441, read-out: LUCIFERASE INFECTION ASSAY - IC50): > 12.8 µM |
| COc1cc(CNCCCN(C)C)cc(Cl)c1OCc1ccc(F)cc1 | > 8.66 | IC50 (HEPG2TOX_HILL_SLOPE 10.1, HEPG2TOX_R_SQUARED 0.531, PBLUC_HILL_SLOPE 2.5, PBLUC_R_SQUARED 0.598, read-out: LUCIFERASE INFECTION ASSAY - IC50): 5.14 µM |
| CCn1c(NC(=O)C2=NOC(c3ccccc3)C2)nc2ccccc21 (stereo not drawn) | 3.82 | IC50 [1]: 3.35 µM |
| Cc1cc(NCc2ccccn2)n2ncc(-c3ccccc3Cl)c2n1 | > 9.43 | IC50 (PBLUC_HILL_SLOPE 4.03, PBLUC_R_SQUARED 0.181, read-out: LUCIFERASE INFECTION ASSAY - IC50): 5.66 µM |
| CC(Sc1nc2ccsc2c(=O)n1C)c1ccc(F)cc1 (stereo not drawn) | > 10 | IC50 (PBLUC_HILL_SLOPE 11.9, PBLUC_R_SQUARED 0.0437, read-out: LUCIFERASE INFECTION ASSAY - IC50): > 10 µM |
| CC(Cn1cccn1)NCc1ccc(F)c(F)c1 (stereo not drawn) | > 10 | IC50 [1]: > 10 µM |
| CC(=O)Nc1cccc(-c2ccnc3c2CC(C(=O)NCc2ccco2)O3)c1 (stereo not drawn) | 6.23 | IC50 (FFLUC_HILL_SLOPE 0.324, FFLUC_R_SQUARED 0.726, HEPG2TOX_HILL_SLOPE 3.12, HEPG2TOX_R_SQUARED 0.86, PBLUC_HILL_SLOPE 2.84, PBLUC_R_SQUARED 0.407, read-out: LUCIFERASE INFECTION ASSAY - IC50): 2.87 µM |
| Brc1ccc(OCc2ccccc2)c(CNCc2ccccn2)c1 | 6.94 | IC50 (PBLUC_HILL_SLOPE 4.81, PBLUC_R_SQUARED 0.436, read-out: LUCIFERASE INFECTION ASSAY - IC50): 4.39 µM |
| Cc1sc2[nH]c(CSCC(=O)c3cc(C)n(-c4ccc(Br)cc4)c3C)nc(=O)c2c1C | > 10 | IC50 (PBLUC_HILL_SLOPE 3.74, PBLUC_R_SQUARED 0.361, read-out: LUCIFERASE INFECTION ASSAY - IC50): 6.79 µM |
| Cc1cc(C)c(NC(=O)c2cc(-c3ccccc3)nn2-c2ccccc2)c(C)c1 | > 10 | IC50 [1]: > 10 µM |
| CCC(NCC(O)COc1ccccc1C(C)C)c1ccc(Br)cc1 (stereo not drawn) | > 10 | IC50 (PBLUC_HILL_SLOPE 15.5, PBLUC_R_SQUARED 0.67, read-out: LUCIFERASE INFECTION ASSAY - IC50): 9.4 µM |
| CC(=O)c1cccc(-c2cnc3ccc(-c4ccc5c(c4)OCO5)nn23)c1 | 7.88 | IC50 (HEPG2TOX_HILL_SLOPE 1.55, HEPG2TOX_R_SQUARED 0.983, PBLUC_HILL_SLOPE 1.3, PBLUC_R_SQUARED 0.851, read-out: LUCIFERASE INFECTION ASSAY - IC50): 1.46 µM |
| O=c1nc(-c2ccccn2)[nH]c2scc(-c3ccccc3)c12 | 2.25 | IC50 (HEPG2TOX_HILL_SLOPE 1.76, HEPG2TOX_R_SQUARED 0.7, PBLUC_HILL_SLOPE 112, PBLUC_R_SQUARED 0.058, read-out: LUCIFERASE INFECTION ASSAY - IC50): 2.21 µM |
| CC(=O)Oc1cccc(C(=O)N2CC3ON=C(c4c(F)cccc4Cl)C3C2)c1C (stereo not drawn) | > 10 | IC50 [1]: > 10 µM |
| CC(C)NC(=O)N1CCCC(C(=O)Nc2nc3c(ccc4ccccc43)s2)C1 (stereo not drawn) | > 10 | IC50 (PBLUC_HILL_SLOPE 2.07, PBLUC_R_SQUARED 0.824, read-out: LUCIFERASE INFECTION ASSAY - IC50): 4.39 µM |
| CC(C)C1CCC(C)C(OCC(O)CN2CCN(Cc3ccc4c(c3)OCO4)CC2)C1 (stereo not drawn) | > 10 | IC50 [1]: > 10 µM |
| COCc1cccc(-c2cc(-c3cc4ccccc4s3)cnc2N)c1 | > 9.53 | IC50 (HEPG2TOX_HILL_SLOPE 6.43, HEPG2TOX_R_SQUARED 0.192, PBLUC_HILL_SLOPE 1.27, PBLUC_R_SQUARED 0.564, read-out: LUCIFERASE INFECTION ASSAY - IC50): 5.74 µM |
| Oc1cccc(-c2ccnc3n[nH]c(-c4ccc5c(c4)OCO5)c23)c1 | 6.14 | IC50 (HEPG2TOX_HILL_SLOPE 9.48, HEPG2TOX_R_SQUARED 0.645, PBLUC_HILL_SLOPE 1.2, PBLUC_R_SQUARED 0.596, read-out: LUCIFERASE INFECTION ASSAY - IC50): 0.984 µM |
| COc1ccc(-c2cnc3cnc(-c4cnn(C)c4)cn23)cc1 | > 10.8 | IC50 (HEPG2TOX_HILL_SLOPE 0.995, HEPG2TOX_R_SQUARED 0.66, PBLUC_HILL_SLOPE 1.64, PBLUC_R_SQUARED 0.772, read-out: LUCIFERASE INFECTION ASSAY - IC50): 3.01 µM |
